Several values for one entry are separate records, joined by “and”; a condition that tells them apart may be missing. Equal values may be shown once. Read-outs that look alike come from different tables or passages of the source.
B1: GDF2 (BMP9): member of BMP family and the TGF-B superfamily (protein, UniProt Q9UK05 320-429, looked up)
Growth/differentiation factor …: SAGAGSHCQKTSLRVNFEDIGWDSWIIAPKEYEAYECKGGCFFPLADDVTPTKHAIVQTLVHLKFPTKVGKACCVPTKLSPISVLYKDDMGVPTLKYHYEGMSVAECGCR

Columns and labels:
OTC [1] = test: JAK inhibitors at 0.3 and 3 μM in primary human hepatocytes, OTC mRNA fold change; type: cell-based; settings: fold change vs DMSO
Procedure: (§1) Additional small molecules that inhibit JAK1, JAK2, JAK3, or a combination of the JAK proteins were tested in primary human hepatocytes as described in Example 2. JAK inhibitors were tested in triplicate at 0.3 μM and 3 μM. The results are shown as the fold change (mRNA FC) in the mRNA levels of OTC and CPS1 genes after treatment compared to an untreated control (DMSO) and the standard deviation (SD).

CPS1 [2] = test: JAK inhibitors at 0.3 and 3 μM in primary human hepatocytes, CPS1 mRNA fold change; type: cell-based; settings: fold change vs DMSO
Procedure: as §1

NAGS = type: cell-based, human; settings: for Relative NAGS level vs Untreated (±Standard Deviation): primary human hepatocytes, triplicate (Table 21, FIG. 13)
SLC25A15 = test: RNA-seq of compound-treated primary human hepatocytes, SLC25A15 expression; type: cell-based; settings: for Relative SLC25A15 level vs Untreated (±Standard Deviation): triplicate (Table 24, FIG. 16A-B)
ASS1 = test: RNA-seq of compound-treated primary human hepatocytes, ASS1 expression; type: cell-based; settings: primary human hepatocytes; for Relative ASS1 level vs Untreated (±Standard Deviation): triplicate (Table 15, FIG. 7); for Fold change (Log 2) vs untreated, ASS1 expression: RNA-seq (Table 4)
ARG1 = test: RNA-seq of compound-treated primary human hepatocytes, ARG1 expression; type: cell-based; settings: for Relative ARGI level vs Untreated (±Standard Deviation) / Fold change (Log 2) vs untreated, ARG1 expression: primary human hepatocytes; for Relative ARGI level vs Untreated (±Standard Deviation): triplicate (Table 17, FIG. 9); for Fold change (Log 2) vs untreated, ARG1 expression: RNA-seq (Table 7)
CPS1 [3] = test: RNA-seq of compound-treated primary human hepatocytes, CPS1 expression; type: cell-based; settings: primary human hepatocytes; for Relative CPS1 level vs Untreated (±Standard Deviation): triplicate (Table 19, FIG. 11); for CPS1 expression, Fold change (Log 2) vs untreated: RNA-seq
urea cycle genes = test: RNA-seq of primary human hepatocytes, compounds that modulate multiple urea cycle-related genes; type: cell-based; settings: primary human hepatocytes, RNA-seq; for Up-regulated Genes: urea cycle-related genes significantly increased (Table 10)
OTC [4] = test: RNA-seq of compound-treated primary human hepatocytes, OTC expression; type: cell-based; settings: primary human hepatocytes, RNA-seq
[5] = 10 μM, primary human hepatocytes
[6] = 1 μM, primary human hepatocytes
[7] = 3 μM, primary human hepatocytes
[8] = Example 11, relative mRNA vs DMSO

| Molecule | OTC mRNA FC (OTC [1]; 0.3 uM) | OTC mRNA FC (OTC [1]; 3 uM) | CPS1 mRNA FC (CPS1 [2]; 0.3 uM) | CPS1 mRNA FC (CPS1 [2]; 3 uM) | also measured |
| --- | --- | --- | --- | --- | --- |
| CCS(=O)(=O)N1CC(CC#N)(n2cc(-c3ncnc4[nH]ccc34)cn2)C1 [Baricitinib] | 2.56 | 2.85 | 1.4 | 1.38 |  |
| O=C(Nc1nc2cccc(-c3ccc(CN4CCS(=O)(=O)CC4)cc3)n2n1)C1CC1 [GLPG0634/Filgotinib] | 1.12 | 2.11 | 1.08 | 1.56 |  |
| NC(=O)c1cnc2[nH]ccc2c1N[C@@H]1[C@@H]2CC3C[C@H]1C[C@@](O)(C3)C2 [Peficitinib] | 2.38 | 3.49 | 1.31 | 2.28 |  |
| CCS(=O)(=O)N1CCN(c2ccc(Nc3ncc(C(N)=O)c(NC4CC4)n3)cc2)CC1 [cerdulatinib] | 2.56 | 1.89 | 1.58 | 2.39 |  |
| COc1cc2c(Oc3ccc(NC(=O)C4(C(=O)Nc5ccc(F)cc5)CC4)cc3F)ccnc2cc1OCCCN1CCOCC1 [Foretinib] |  |  |  |  | Relative NAGS level vs Untreated (±Standard Deviation) (NAGS; 10 μM): 1.45 ± 0.38; Relative SLC25A15 level vs Untreated (±Standard Deviation) (SLC25A15; [5]): 1.97 ± 0.15; Relative ASS1 level vs Untreated (±Standard Deviation) (ASS1; 10 μM): 1.82 ± 0.11; Relative ARGI level vs Untreated (±Standard Deviation) (ARG1; 3 μM): 1.40 ± 0.00; Relative ARGI level vs Untreated (±Standard Deviation) (ARG1; 10 μM): 1.61 ± 0.12; Relative CPS1 level vs Untreated (±Standard Deviation) (CPS1 [3]; 3 μM): 1.37 ± 0.30; Relative CPS1 level vs Untreated (±Standard Deviation) (CPS1 [3]; 10 μM): 1.75 ± 0.30 |
| EGF: Epidermal Growth Factor, a polypeptide growth factor |  |  |  |  | number of urea cycle genes whose expression was significantly up-regulated (urea cycle genes): three; Up-regulated Genes (urea cycle genes): CPS1, OTC, ARG1; OTC expression, Fold change (Log 2) vs untreated (OTC [4]): 0.64 Log 2; Fold change (Log 2) vs untreated, ARG1 expression (ARG1): 1.46 Log 2; CPS1 expression, Fold change (Log 2) vs untreated (CPS1 [3]): 1.93 Log 2 |
| CCn1c(C(=O)N(C2CC2)C2CC2)cc2c3c(ncn3C)c(Nc3cc(C)n(C)n3)nc21 [BMS-911543] | 1.94 | 2.7 | 1.31 and 1.03 | 1.65 |  |
| S=C(NCc1ccc2c(c1)OCO2)N1CCN(c2ncnc3c2oc2ccccc23)CC1 [Amuvatinib] |  |  |  |  | number of urea cycle genes whose expression was significantly up-regulated (urea cycle genes): five; Up-regulated Genes (urea cycle genes): CPS1, ASS1, ASL, OTC, ARG1; Fold change (Log 2) vs untreated, ASS1 expression (ASS1): 0.69 Log 2; Relative ARGI level vs Untreated (±Standard Deviation) (ARG1; 10 μM): 1.71 ± 0.19; Fold change (Log 2) vs untreated, ARG1 expression (ARG1): 2.5 Log 2; Relative CPS1 level vs Untreated (±Standard Deviation) (CPS1 [3]; 10 μM): 2.07 ± 0.42 |
| Cc1cnc(Nc2ccc(OCCN3CCCC3)cc2)nc1Nc1cccc(S(=O)(=O)NC(C)(C)C)c1 [Fedratinib] | 1.09 | 1.49 | 0.93 | 0.95 |  |
| O=C(Nc1c[nH]nc1-c1nc2ccc(CN3CCOCC3)cc2[nH]1)NC1CC1 [AT9283] | 1.56 | 0.56 | 1.53 | 1.05 | Relative NAGS level vs Untreated (±Standard Deviation) (NAGS; 0.3 μM): 1.43 ± 0.38; Relative NAGS level vs Untreated (±Standard Deviation) (NAGS; 1 μM): 1.49 ± 0.10; Relative NAGS level vs Untreated (±Standard Deviation) (NAGS; 3 μM): 1.38 ± 0.07; Relative SLC25A15 level vs Untreated (±Standard Deviation) (SLC25A15; [6]): 1.78 ± 0.04; Relative SLC25A15 level vs Untreated (±Standard Deviation) (SLC25A15; [7]): 2.56 ± 1.37; Relative SLC25A15 level vs Untreated (±Standard Deviation) (SLC25A15; [5]): 2.94 ± 0.98; Relative ASS1 level vs Untreated (±Standard Deviation) (ASS1; 3 μM): 1.40 ± 0.43; Relative ASS1 level vs Untreated (±Standard Deviation) (ASS1; 10 μM): 2.48 ± 0.79; Relative ARGI level vs Untreated (±Standard Deviation) (ARG1; 10 μM): 1.70 ± 0.16; Relative CPS1 level vs Untreated (±Standard Deviation) (CPS1 [3]; 3 μM): 2.35 ± 0.15; Relative CPS1 level vs Untreated (±Standard Deviation) (CPS1 [3]; 10 μM): 1.53 ± 0.33 |
| CN1C/C=C/CCOc2cccc(c2)-c2ccnc(n2)Nc2cccc(c2)C1 [SB1317/TG02] | 1.05 | 0.64 | 1.05 | 1.03 | Relative SLC25A15 level vs Untreated (±Standard Deviation) (SLC25A15; 0.3 μM, primary human hepatocytes): 1.36 ± 0.24; Relative SLC25A15 level vs Untreated (±Standard Deviation) (SLC25A15; [7]): 2.70 ± 0.34; Relative SLC25A15 level vs Untreated (±Standard Deviation) (SLC25A15; [5]): 2.71 ± 0.09; Relative ASS1 level vs Untreated (±Standard Deviation) (ASS1; 1 μM): 1.34 ± 0.12; Relative ASS1 level vs Untreated (±Standard Deviation) (ASS1; 3 μM): 1.90 ± 0.19; Relative ASS1 level vs Untreated (±Standard Deviation) (ASS1; 10 μM): 1.92 ± 0.18 |
| CC(=O)NCC(=O)N1[C@@H]2CC[C@H]1c1ccc(Nc3ncc(C(F)(F)F)c(NC4CCC4)n3)cc12 [PF-3814735] |  |  |  |  | Relative SLC25A15 level vs Untreated (±Standard Deviation) (SLC25A15; [6]): 1.35 ± 0.11; Relative SLC25A15 level vs Untreated (±Standard Deviation) (SLC25A15; [7]): 3.06 ± 0.51; Relative SLC25A15 level vs Untreated (±Standard Deviation) (SLC25A15; [5]): 2.41 ± 0.14; Increase in SLC25A15 gene expression (qualitative) (SLC25A15; [8]): greatest increase; Relative ASS1 level vs Untreated (±Standard Deviation) (ASS1; 10 μM): 1.56 ± 0.17; Relative ARGI level vs Untreated (±Standard Deviation) (ARG1; 1 μM): 1.44 ± 0.02; Relative ARGI level vs Untreated (±Standard Deviation) (ARG1; 3 μM): 2.45 ± 0.43; increase in ARG1 gene expression (Tables 17, 18, FIG. 9, 10) (ARG1; [8]): greatest increase; Relative CPS1 level vs Untreated (±Standard Deviation) (CPS1 [3]; 3 μM): 2.25 ± 0.74 |
| C[C@]12CC[C@H]3[C@@H](CCC4=CC(=O)CC[C@@]43C)[C@@H]1CC[C@@H]2C(=O)CO [Deoxycorticosterone] |  |  |  |  | number of urea cycle genes whose expression was significantly up-regulated (urea cycle genes): four; Up-regulated Genes (urea cycle genes): CPS1, ASS1, ARG1, SLC25A15; Fold change (Log 2) vs untreated, ASS1 expression (ASS1): 0.6 Log 2; Fold change (Log 2) vs untreated, ARG1 expression (ARG1): 1.37 Log 2; CPS1 expression, Fold change (Log 2) vs untreated (CPS1 [3]): 3.79 Log 2 |
| COc1cc2ncnc(Nc3ccc(O)cc3)c2cc1OC [JANEX-1] | 0.85 | 1.1 | 0.86 | 1.01 |  |
| N#CCC1(n2cc(-c3ncnc4[nH]ccc34)cn2)CN(C2CCN(C(=O)c3ccnc(C(F)(F)F)c3F)CC2)C1 [itacitinib] | 3.56 | 3.41 | 1.84 | 2.17 |  |
| FGF: Fibroblast Growth Factor-acidic (FGF-acidic), also known as FGF-1 |  |  |  |  | number of urea cycle genes whose expression was significantly up-regulated (urea cycle genes): three; Up-regulated Genes (urea cycle genes): CPS1, OTC, ARG1; OTC expression, Fold change (Log 2) vs untreated (OTC [4]): 0.56 Log 2; Fold change (Log 2) vs untreated, ARG1 expression (ARG1): 1.24 Log 2; CPS1 expression, Fold change (Log 2) vs untreated (CPS1 [3]): 1.72 Log 2 |
| Cc1cc(Nc2cc(CN3CCOCC3)c3nc(C)c(Cc4ccc(Cl)cc4F)n3n2)n[nH]1 [LYS2784544] | 1.98 | 3.67 | 1.3 | 1.6 |  |
| N#CC[C@H](C1CCCC1)n1cc(-c2ncnc3[nH]ccc23)cn1 [ruxolitinib] | 2.65 | 4.17 | 1.66 | 1.79 |  |
| CC[C@@](C)(Nc1ccnc(-c2c[nH]c3ncccc23)n1)C(=O)NCC(F)(F)F [Decernotinib] | 1.01 | 2.18 | 1.07 | 1.28 |  |
| O=C(Nc1ccc(-c2ccnc(Nc3ccc(N4CCOCC4)cc3)n2)cc1)C1CCCN1 (centres unmarked) [XL019] | 1.09 | 1.02 | 0.91 | 0.81 |  |
| Cc1cc(Nc2cc(CN3CCOCC3)c3nc(C)c(Cc4ccc(Cl)cc4F)n3n2)n[nH]1 [LY2784544/gandotinib] | 1.19 | 1.63 | 1.11 | 1.39 |  |
| CCc1cc(O)c(F)cc1-c1ccc2c(-c3nc4c([nH]3)CCN(C(=O)c3cnc(N5CCCCC5)cn3)C4)n[nH]c2c1 [PF-06263276] | 1.16 | 1.46 | 1.05 | 1.03 |  |
| B1 |  |  |  |  | Fold change (Log 2) vs untreated, NAGS expression (NAGS): 0.63 Log 2; Fold change (Log 2) vs untreated, SLC25A15 expression (SLC25A15; primary human hepatocytes, RNA-seq (Table 8)): 1.09 Log 2; number of urea cycle genes whose expression was significantly up-regulated (urea cycle genes): five; Up-regulated Genes (urea cycle genes): ASS1, CPS1, NAGS, ARG1, SLC25A15; Fold change (Log 2) vs untreated, ASS1 expression (ASS1): 1.34 Log 2; Fold change (Log 2) vs untreated, ARG1 expression (ARG1): 1.79 Log 2; CPS1 expression, Fold change (Log 2) vs untreated (CPS1 [3]): 3.46 Log 2 |

Source: US11266655B2, “Methods and compositions for treating urea cycle disorders” (Camp4 Therapeutics Corporation, priority 2019, dated 2022)
